Data from PubChem BioAssay (NCI).
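Five concentrations, 48 hours, 96-well plates. TGI denotes the concentration required for complete inhibition of growth.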

Experiments:
Test in all cases: NCI anticancer screen, dose series, 48 h
DLD-1 colon = tested on: DLD-1 colon
HCT-116 colon = tested on: HCT-116 colon
HOP-92 NSCLC = tested on: HOP-92 NSCLC
HCT-15 colon = tested on: HCT-15 colon
SK-MEL-5 melanoma = tested on: SK-MEL-5 melanoma
MALME-3M melanoma = tested on: MALME-3M melanoma
XF 498 CNS = tested on: XF 498 CNS
A498 renal = tested on: A498 renal
HT29 colon = tested on: HT29 colon
SR leukemia = tested on: SR leukemia
NCI-H23 lung = tested on: NCI-H23 lung
DMS 273 small cell lung = tested on: DMS 273 small cell lung
SF-539 CNS = tested on: SF-539 CNS
UACC-257 melanoma = tested on: UACC-257 melanoma
MOLT-4 leukemia = tested on: MOLT-4 leukemia
NCI-H522 lung = tested on: NCI-H522 lung
SN12C renal = tested on: SN12C renal
NCI-H226 lung = tested on: NCI-H226 lung
HOP-18 NSCLC = tested on: HOP-18 NSCLC
K-562 leukemia = tested on: K-562 leukemia
HCC-2998 colon = tested on: HCC-2998 colon
SW-620 colon = tested on: SW-620 colon
UO-31 renal = tested on: UO-31 renal
M14 melanoma = tested on: M14 melanoma
KM12 colon = tested on: KM12 colon
IGROV1 ovarian = tested on: IGROV1 ovarian
RPMI-8226 leukemia = tested on: RPMI-8226 leukemia
OVCAR-5 ovarian = tested on: OVCAR-5 ovarian
SNB-19 CNS = tested on: SNB-19 CNS
UACC-62 melanoma = tested on: UACC-62 melanoma
A549 NSCLC = tested on: A549 NSCLC
NCI-H460 lung = tested on: NCI-H460 lung
SK-MEL-28 melanoma = tested on: SK-MEL-28 melanoma
SNB-75 CNS = tested on: SNB-75 CNS
KM20L2 colon = tested on: KM20L2 colon
OVCAR-3 ovarian = tested on: OVCAR-3 ovarian
COLO 205 colon = tested on: COLO 205 colon
SK-OV-3 ovarian = tested on: SK-OV-3 ovarian
TK-10 renal = tested on: TK-10 renal
SF-295 CNS = tested on: SF-295 CNS
SF-268 CNS = tested on: SF-268 CNS
OVCAR-8 ovarian = tested on: OVCAR-8 ovarian
HOP-62 NSCLC = tested on: HOP-62 NSCLC
M19-MEL melanoma = tested on: M19-MEL melanoma
ACHN renal = tested on: ACHN renal
U251 CNS = tested on: U251 CNS
HL-60(TB) leukemia = tested on: HL-60(TB) leukemia
OVCAR-4 ovarian = tested on: OVCAR-4 ovarian
SNB-78 CNS = tested on: SNB-78 CNS
LXFL 529 NSCLC = tested on: LXFL 529 NSCLC
RXF 393 renal = tested on: RXF 393 renal
LOX IMVI melanoma = tested on: LOX IMVI melanoma
CAKI-1 renal = tested on: CAKI-1 renal
786-0 renal = tested on: 786-0 renal
DMS 114 small cell lung = tested on: DMS 114 small cell lung
CCRF-CEM leukemia = tested on: CCRF-CEM leukemia
SK-MEL-2 melanoma = tested on: SK-MEL-2 melanoma
EKVX NSCLC = tested on: EKVX NSCLC

SMILES: COC1=C(N)C(=O)c2nc(C)ccc2C1=O
- TGI (DLD-1 colon): 5.31 µM
- TGI (HCT-116 colon): 3.99 µM
- TGI (HOP-92 NSCLC): 22.1 µM
- TGI (HCT-15 colon): 3.49 µM
- TGI (SK-MEL-5 melanoma): 3.09 µM
- TGI (MALME-3M melanoma): 3.18 µM
- TGI (XF 498 CNS): 2.84 µM
- TGI (A498 renal): 3.57 µM
- TGI (HT29 colon): 3.74 µM
- TGI (SR leukemia): > 24 µM
- TGI (NCI-H23 lung): 2.95 µM
- TGI (DMS 273 small cell lung): 3.84 µM
- TGI (SF-539 CNS): 3.35 µM
- TGI (UACC-257 melanoma): 2.78 µM
- TGI (MOLT-4 leukemia): > 52.9 µM
- TGI (NCI-H522 lung): 3.21 µM
- TGI (SN12C renal): 3.27 µM
- TGI (NCI-H226 lung): 2.33 µM
- TGI (HOP-18 NSCLC): 3.53 µM
- TGI (K-562 leukemia): > 22.5 µM
- TGI (HCC-2998 colon): 14.5 µM
- TGI (SW-620 colon): 3.36 µM
- TGI (UO-31 renal): 4 µM
- TGI (M14 melanoma): 3.33 µM
- TGI (KM12 colon): 3.68 µM
- TGI (IGROV1 ovarian): 23.3 µM
- TGI (RPMI-8226 leukemia): > 40.8 µM
- TGI (OVCAR-5 ovarian): 3.43 µM
- TGI (SNB-19 CNS): 3.83 µM
- TGI (UACC-62 melanoma): 3.2 µM
- TGI (A549 NSCLC): 4.57 µM
- TGI (NCI-H460 lung): 4.11 µM
- TGI (SK-MEL-28 melanoma): 3.27 µM
- TGI (SNB-75 CNS): 3.74 µM
- TGI (KM20L2 colon): 5.07 µM
- TGI (OVCAR-3 ovarian): 3.65 µM
- TGI (COLO 205 colon): 3.23 µM
- TGI (SK-OV-3 ovarian): 38.4 µM
- TGI (TK-10 renal): 16.4 µM
- TGI (SF-295 CNS): 3.18 µM
- TGI (SF-268 CNS): 4.17 µM
- TGI (OVCAR-8 ovarian): 12.4 µM
- TGI (HOP-62 NSCLC): 2.94 µM
- TGI (M19-MEL melanoma): 0.715 µM
- TGI (ACHN renal): 3.27 µM
- TGI (U251 CNS): 5.69 µM
- TGI (HL-60(TB) leukemia): > 26.9 µM
- TGI (OVCAR-4 ovarian): 3.66 µM
- TGI (SNB-78 CNS): 14.1 µM
- TGI (LXFL 529 NSCLC): 6.21 µM
- TGI (RXF 393 renal): 3.08 µM
- TGI (LOX IMVI melanoma): 2.49 µM
- TGI (CAKI-1 renal): 22.4 µM
- TGI (786-0 renal): 3.94 µM
- TGI (DMS 114 small cell lung): 3.53 µM
- TGI (CCRF-CEM leukemia): > 87.7 µM
- TGI (SK-MEL-2 melanoma): 3.28 µM
- TGI (EKVX NSCLC): 6.85 µM

SMILES: O=C(COc1ccc(Cl)cc1)N1N=C(c2ccc(Cl)cc2)CC1(O)c1ccccc1 (configuration not stated)
- TGI (DLD-1 colon): 49.5 µM
- TGI (HCT-116 colon): 26.3 µM
- TGI (HOP-92 NSCLC): 44.1 µM
- TGI (HCT-15 colon): > 58.1 µM
- TGI (SK-MEL-5 melanoma): 29.3 µM
- TGI (MALME-3M melanoma): 47.4 µM
- TGI (XF 498 CNS): > 100 µM
- TGI (A498 renal): 26.5 µM
- TGI (HT29 colon): 26.3 µM
- TGI (SR leukemia): 17.7 µM
- TGI (NCI-H23 lung): 33.9 µM
- TGI (DMS 273 small cell lung): 33.1 µM
- TGI (SF-539 CNS): > 59.4 µM
- TGI (UACC-257 melanoma): 44.3 µM
- TGI (MOLT-4 leukemia): 30.6 µM
- TGI (NCI-H522 lung): 50.2 µM
- TGI (SN12C renal): 11.4 µM
- TGI (NCI-H226 lung): 48.1 µM
- TGI (HOP-18 NSCLC): > 100 µM
- TGI (K-562 leukemia): > 42.7 µM
- TGI (HCC-2998 colon): > 100 µM
- TGI (SW-620 colon): > 69.3 µM
- TGI (UO-31 renal): > 100 µM
- TGI (M14 melanoma): 34.5 µM
- TGI (KM12 colon): 31.4 µM
- TGI (IGROV1 ovarian): 61.6 µM
- TGI (RPMI-8226 leukemia): > 37.6 µM
- TGI (OVCAR-5 ovarian): 45.3 µM
- TGI (SNB-19 CNS): > 100 µM
- TGI (UACC-62 melanoma): 41.6 µM
- TGI (A549 NSCLC): 34.7 µM
- TGI (NCI-H460 lung): 35.7 µM
- TGI (SK-MEL-28 melanoma): 35.3 µM
- TGI (SNB-75 CNS): > 72.7 µM
- TGI (KM20L2 colon): > 50.9 µM
- TGI (OVCAR-3 ovarian): 39.2 µM
- TGI (COLO 205 colon): 54.6 µM
- TGI (SK-OV-3 ovarian): > 63.6 µM
- TGI (TK-10 renal): > 78 µM
- TGI (SF-295 CNS): 82 µM
- TGI (SF-268 CNS): > 100 µM
- TGI (OVCAR-8 ovarian): 30 µM
- TGI (HOP-62 NSCLC): 57 µM
- TGI (M19-MEL melanoma): > 63.4 µM
- TGI (ACHN renal): > 100 µM
- TGI (U251 CNS): 38.3 µM
- TGI (HL-60(TB) leukemia): 28 µM
- TGI (OVCAR-4 ovarian): 21 µM
- TGI (SNB-78 CNS): > 56.7 µM
- TGI (LXFL 529 NSCLC): > 100 µM
- TGI (LOX IMVI melanoma): 26.6 µM
- TGI (CAKI-1 renal): > 100 µM
- TGI (786-0 renal): 28.3 µM
- TGI (DMS 114 small cell lung): > 100 µM
- TGI (CCRF-CEM leukemia): > 100 µM
- TGI (SK-MEL-2 melanoma): 80.7 µM
- TGI (EKVX NSCLC): 91.4 µM

SMILES: O/N=C1/C(=C/c2ccc3c(c2)OCO3)CCCC1C(NO)c1ccc2c(c1)OCO2 (configuration not stated)
- TGI (DLD-1 colon): 98.8 µM
- TGI (HCT-116 colon): 31.9 µM
- TGI (HCT-15 colon): 83.8 µM
- TGI (SK-MEL-5 melanoma): 32.3 µM
- TGI (MALME-3M melanoma): 48.2 µM
- TGI (XF 498 CNS): 62.2 µM
- TGI (A498 renal): 79 µM
- TGI (HT29 colon): 30.4 µM
- TGI (NCI-H23 lung): 72.5 µM
- TGI (DMS 273 small cell lung): 47.3 µM
- TGI (SF-539 CNS): 32.4 µM
- TGI (UACC-257 melanoma): 33.9 µM
- TGI (MOLT-4 leukemia): 42.5 µM
- TGI (NCI-H522 lung): 40.2 µM
- TGI (SN12C renal): 40.9 µM
- TGI (HOP-18 NSCLC): 42.5 µM
- TGI (K-562 leukemia): 71 µM
- TGI (HCC-2998 colon): 55.5 µM
- TGI (SW-620 colon): > 100 µM
- TGI (UO-31 renal): 58.5 µM
- TGI (M14 melanoma): 36.9 µM
- TGI (KM12 colon): 43.6 µM
- TGI (IGROV1 ovarian): 86.5 µM
- TGI (RPMI-8226 leukemia): 40.9 µM
- TGI (SNB-19 CNS): > 100 µM
- TGI (UACC-62 melanoma): 39.8 µM
- TGI (A549 NSCLC): 95.4 µM
- TGI (NCI-H460 lung): 71.1 µM
- TGI (SK-MEL-28 melanoma): 40.1 µM
- TGI (SNB-75 CNS): 80.1 µM
- TGI (KM20L2 colon): 34.6 µM
- TGI (OVCAR-3 ovarian): 30.6 µM
- TGI (COLO 205 colon): 64.9 µM
- TGI (SK-OV-3 ovarian): 94 µM
- TGI (TK-10 renal): 71.6 µM
- TGI (SF-268 CNS): > 100 µM
- TGI (OVCAR-8 ovarian): 67.1 µM
- TGI (HOP-62 NSCLC): 53.7 µM
- TGI (M19-MEL melanoma): 62 µM
- TGI (ACHN renal): > 100 µM
- TGI (U251 CNS): 45.1 µM
- TGI (HL-60(TB) leukemia): 36.4 µM
- TGI (OVCAR-4 ovarian): 75.1 µM
- TGI (SNB-78 CNS): 87.7 µM
- TGI (LXFL 529 NSCLC): 51.4 µM
- TGI (RXF 393 renal): 55 µM
- TGI (CAKI-1 renal): 94.6 µM
- TGI (786-0 renal): 96.3 µM
- TGI (DMS 114 small cell lung): 60.7 µM
- TGI (CCRF-CEM leukemia): 53 µM
- TGI (SK-MEL-2 melanoma): 48.1 µM
- TGI (EKVX NSCLC): 89.1 µM
